Columns and labels:
[1] = tested on: human fibrosarcoma cell line HT1080; assay: Labeled sugar incorporation, fluorescence microscopy image analysis (positive rate); format: cell-based; conditions: 10 mM, 5 min, 23° C.
Source text: (§1) In accordance with the conventional method, cultured human fibrosarcoma cell line HT1080 (DS Pharma Biomedical Co., Ltd.) was harvested with trypsin (Invitrogen). The human gastric cancer cell line SNU-1 (ATCC), which is a suspension cell line, was directly harvested without any trypsin treatment. The cell suspension of the harvested cancer cells was centrifuged, and the supernatant was removed. The cells were resuspended with Dulbecco's PBS (−) (Nissui Pharmaceutical Co., Ltd.) and centrifuged, and the supernatant was removed again.
(§2) When performing the hemolyzing treatment, the blood cell fraction collected as described above was hemolyzed using ammonium chloride (STEMCELL Technologies) according to the manufacture's manuals.
(§3) The number of the cells was counted for each cell line using a hemacytometer in accordance with the conventional method, and then 10^5 to 10^6 cells per sample (cell suspension) was aliquoted. Each of the sample was centrifuged to remove the supernatant. Subsequently, 2-NBDG (Wako Pure Chemical Industries, Ltd.; at the final concentration given in Table 3 or 4) dissolved in Dulbecco's PBS (−) was added thereto, and the cells were suspended well. After the reaction, Dulbecco's PBS (−) was added to the mixture, and the resultant was centrifuged to remove the supernatant. The cells were resuspended with Dulbecco's PBS (−) and centrifuged, and the supernatant was removed again. The steps of resuspending cells with Dulbecco's PBS (−), centrifuging and removing the supernatant were then repeated 2 to 3 times, thereby washing the cells thoroughly. The cells were resuspended with Dulbecco's PBS (−), the concentration thereof was adjusted, and then added dropwise to a 384-well plate. The plate was centrifuged to spin down the cells. The image was captured with a fluorescence microscope (Nikon Corp.) using B-2A filter combination (Nikon Corp.). The B-2A set covers the following wavelengths. EX (excitation wavelength): 475±15 nm, DM: 505 nm or longer, BA (fluorescence wavelength) 520 nm or longer.
(§4) The acquired images were analyzed using an image analysis software NIS-ELEMENTS (trade name, Nikon Corp.) to evaluate the fluorescence intensity of the cell. […]
In a manner similar to Example 2, each of human breast adenocarcinoma cells (cell line name: MCF-7; DS Pharma Biomedical Co., Ltd.), human colon adenocarcinoma cells (cell line name: SW620; DS Pharma Biomedical Co., Ltd.), human prostate cancer cells (cell line name: PC3; DS Pharma Biomedical Co., Ltd.), human alveolar epithelial cancer cells (cell line name: NCI-H358; DS Pharma Biomedical Co., Ltd.), human gastric cancer cells (cell line name: SNU-1; ATCC) and human fibrosarcoma cells (cell line name: HT1080; DS Pharma Biomedical Co., Ltd.) was detected with the labeled sugar (2-NBDG).

Blood cells [2] = assay: Labeled sugar incorporation, fluorescence microscopy image analysis (false-positive/negative rate); format: cell-based, human; conditions: 10 mM, 5 min, 23° C.
Source text: (§5) Blood was collected from a human subject using a vacuum blood collection tube (with EDTA•2K). Blood cells were separated using HetaSep (STEMCELL Technologies) in accordance with manufacturer's instructions.
as §2, §3, §4

Blood cells [3] = assay: Labeled amino acid incorporation, fluorescence microscopy image analysis (false-positive/negative rate); format: cell-based, human; conditions: hemolyzed, 30 min, 37° C.; for Negative rate (Blood cells) / Positive rate (Blood cells): 1 mM
Source text: as §5
When performing the hemolyzing treatment, the blood cell fraction collected as described above was hemolyzed using ammonium chloride (STEMCELL Technologies) at room temperature according to the manufacture's manuals.
The number of the cells was counted for each cell line using a hemacytometer in accordance with the conventional method, and then 10^5 to 10^6 cells per sample (cell suspension) was aliquoted. The sample was centrifuged to remove the supernatant. Subsequently, H-Ala(2-Bacd)-OH (Watanabe Chemical Industries, Ltd.) was added thereto (at the final concentration given in Table 5 or 6), and the cells were suspended well. After the reaction, Dulbecco's PBS (−) was added to the mixture, and the resultant was centrifuged to remove the supernatant. The cells were resuspended with Dulbecco's PBS and centrifuged, and the supernatant was removed again. The steps of resuspending cells with Dulbecco's PBS (−), centrifuging and removing the supernatant were then repeated 2 to 3 times, thereby washing the cells thoroughly. The cells were resuspended with Dulbecco's PBS (−), the concentration thereof was adjusted, and then added dropwise to a 384-well plate. The plate was centrifuged to spin down the cells. The image was captured with a fluorescence microscope (Nikon Corp.) using B-2A filter set (Nikon Corp.). The B-2A set covers the same wavelengths as those in Example 2. The acquired images were analyzed using an image analysis software NIS-ELEMENTS (trade name, Nikon Corp.) to evaluate the fluorescence intensity of the cell.
With regard to the labeling substance, H-Lys(DMACA)-OH (Watanabe Chemical Industries, Ltd.) or H-Glu(EDANS)—OH (Watanabe Chemical Industries, Ltd.) was used instead of using H-Ala(2-Bacd)-OH in the staining of Example 3.
(§6) Further, the fluorescence intensity of the cells was evaluated in a manner similar to Example 2, except the fluorescence filter covering the wavelengths of EX (excitation wavelength) of 365/±10, DM of 400 or longer and BA (fluorescence wavelength) of 470±20 was used based on the fluorescent property of the fluorescent substances.

[4] = tested on: human gastric cancer cell line SNU-1; assay: Labeled amino acid incorporation, fluorescence microscopy image analysis (positive rate); format: cell-based; conditions: 1 mM; hemolyzed, 30 min, 37° C.
Source text: as §1, with “prostate cancer” for “fibrosarcoma”, “PC3” for “HT1080”
The number of the cells was counted for each cell line using a hemacytometer in accordance with the conventional method, and then 10^5 to 10^6 cells per sample (cell suspension) was aliquoted. The sample was centrifuged to remove the supernatant. […] The image was captured with a fluorescence microscope (Nikon Corp.) using B-2A filter set (Nikon Corp.). […] The acquired images were analyzed using an image analysis software NIS-ELEMENTS (trade name, Nikon Corp.) to evaluate the fluorescence intensity of the cell. […]
as §6

| Compound | Positive rate (Fibrosarcoma cell line) ([1]; hemolyzed) [%] | Positive rate (Fibrosarcoma cell line) ([1]; not hemolyzed) [%] | Negative rate (Blood cells (fresh blood)) (Blood cells [2]; hemolyzed) [%] | Positive rate (Blood cells (fresh blood)) (Blood cells [2]; hemolyzed) [%] | Negative rate (Blood cells (fresh blood)) (Blood cells [2]; not hemolyzed) [%] | Positive rate (Blood cells (fresh blood)) (Blood cells [2]; not hemolyzed) [%] | Negative rate (Blood cells) (Blood cells [3]) [%] | Positive rate (Blood cells) (Blood cells [3]) [%] | Positive rate (Gastric cancer cell line) [4] [%] | selectivity for a cancer cell in view of a negative rate (Blood cells [3]; gastric cancer cell line versus blood cells, Table 15) |
| --- | --- | --- | --- | --- | --- | --- | --- | --- | --- | --- |
| O=[N+]([O-])c1ccc(NCC2OC(O)C(O)C(O)[C@@H]2O)c2nonc12 (stereo partly drawn) [6-NBDG, 6-[N-(7-nitrobenz-2-oxa-1,3-diazol-4-yl)amino]-6-deoxy-D-glucose] | 78.7 | 71.1 | 99.1 | 0.9 | 99.1 | 0.9 |  |  |  |  |
| CN(C)c1ccc2c(CC(=O)NCCCC[C@H](N)C(=O)O)cc(=O)oc2c1 [H-Lys(DMACA)-OH] |  |  |  |  |  |  | 82.3 | 17.7 | 86.1 |  |
| N[C@@H](CCC(=O)NCCNc1cccc2c(S(=O)(=O)O)cccc12)C(=O)O [H-Glu(EDANS)-OH] |  |  |  |  |  |  | 99.4 | 0.6 | 56.9 | high selectivity |

Source: US9645154B2, “Method for detecting cancer cell” (ARKRAY, Inc., priority 2010, dated 2017)
